Experiments:
Format in all cases: in vivo
[1] = test system: Erysiphe graminis f. sp. tritici; assay: Test A: preventive spray on wheat seedlings, wheat powdery mildew, disease rating; settings: wheat seedlings sprayed to run-off, inoculated the following day with Erysiphe graminis f. sp. tritici, rated after 7 days at 20° C.; test concentration not given
Text: General protocol for preparing test suspensions: Test compounds were first dissolved in acetone in an amount equal to 3% of the final volume and then suspended at the desired concentration (in ppm) in acetone and purified water (50/50 mix) containing 250 ppm of the surfactant Trem® 014 (polyhydric alcohol esters). The resulting test suspensions were then used in the following tests. Spraying a 200 ppm test suspension to the point of run-off on the test plants was the equivalent of a rate of 500 g/ha. The test suspension was sprayed to the point of run-off on wheat seedlings. The following day the seedlings were inoculated with a spore dust of Erysiphe graminis f. sp. tritici, (the causal agent of wheat powdery mildew) and incubated in a growth chamber at 20° C. for 7 days, after which disease ratings were made. Results for Tests A-C are given in Table A. In the table, a rating of 100 indicates 100% disease control and a rating of 0 indicates no disease control (relative to the controls). A dash (-) indicates no test results.

Puccinia recondita = assay: Test B: preventive spray on wheat seedlings, wheat leaf rust, disease rating; settings: wheat seedlings sprayed to run-off, inoculated the following day with Puccinia recondita, 24 h saturated atmosphere then 6 days at 20° C.; test concentration not given
Text: (§1) General protocol for preparing test suspensions: Test compounds were first dissolved in acetone in an amount equal to 3% of the final volume and then suspended at the desired concentration (in ppm) in acetone and purified water (50/50 mix) containing 250 ppm of the surfactant Trem® 014 (polyhydric alcohol esters). The resulting test suspensions were then used in the following tests. Spraying a 200 ppm test suspension to the point of run-off on the test plants was the equivalent of a rate of 500 g/ha. The test suspension was sprayed to the point of run-off on wheat seedlings. The following day the seedlings were inoculated with a spore suspension of Puccinia recondita (the causal agent of wheat leaf rust) and incubated in a saturated atmosphere at 20° C. for 24 h, and then moved to a growth chamber at 20° C. for 6 days, after which disease ratings were made. Results for Tests A-C are given in Table A. In the table, a rating of 100 indicates 100% disease control and a rating of 0 indicates no disease control (relative to the controls). A dash (-) indicates no test results.

Septoria nodorum = assay: Test C: preventive spray on wheat seedlings, Septoria glume blotch, disease rating; settings: wheat seedlings sprayed to run-off, inoculated the following day with Septoria nodorum, 48 h saturated atmosphere then 9 days at 20° C.; test concentration not given
Text: as §1, with “Septoria nodorum” for “Puccinia recondita”, “Septoria glume blotch)” for “wheat leaf rust)”, “48” for “24”, “9” for “6”

SMILES | Test A disease control rating (100 = 100% disease control, 0 = no disease control relative to the controls) [1] | Test B disease control rating (100 = 100% disease control, 0 = no disease control relative to the controls) (Puccinia recondita) | Test C disease control rating (100 = 100% disease control, 0 = no disease control relative to the controls) (Septoria nodorum)
CCN(C)C=Nc1cc(Cl)c(OCCC[Si](C)(C)C)cc1C [compound 54] | 100% | 100% | 100%
CN(C)C=Nc1cc(Cl)c(OCCC[Si](C)(C)C)c(Cl)c1Cl [compound 55] | 0% | 19% | 0%
C=CCN(C)C=Nc1cc(Cl)c(OCCC[Si](C)(C)C)cc1C [compound 56] | 100% | 100% | 100%
CCN(C)C=Nc1cc(Cl)c(OCCC[Si](C)(C)CC)cc1C [compound 57] | 100% | 100% | 100%
CCCN(C)C=Nc1cc(Cl)c(OCCC[Si](C)(C)C)cc1C [compound 58] | 100% | 100% | 100%
CCN(C)C=Nc1cc(F)c(OCCC[Si](C)(C)C)cc1C [compound 59] | 100% | 100% | 100%
CCCN(C)C=Nc1cc(F)c(OCCC[Si](C)(C)C)cc1C [compound 60] | 100% | 100% | 100%
Cc1cc(OCCC[Si](C)(C)C)c(Cl)cc1N=CN(C)C1CC1 [compound 61] | 100% | 100% | 100%
CCCCN(C)C=Nc1cc(F)c(OCCC[Si](C)(C)C)cc1C [compound 62] | 100% | 100% | 100%
Cc1cc(OCCC[Si](C)(C)C)c(F)cc1N=CN(C)C(C)C [compound 63] | 100% | 100% | 100%
C=CCN(C)C=Nc1cc(F)c(OCCC[Si](C)(C)C)cc1C [compound 64] | 100% | 100% | 100%
CC[Si](C)(C)CCCOc1cc(C)c(N=CN(C)C2CC2)cc1Cl [compound 65] | 100% | 100% | 96%
CCCCN(C)C=Nc1cc(C(C)C)c(OCCC[Si](C)(C)C)cc1C [compound 73] | 99% | 61% | 66%
Cc1cc(OCCC[Si](C)(C)C)c(C(C)C)cc1N=CN(C)C(C)C [compound 74] | 100% | 100% | 100%
CCCN(C)C=Nc1cc(C(C)C)c(OCCC[Si](C)(C)C)cc1C [compound 75] | 100% | 100% | 100%
CCN(C)C=Nc1cc(C(C)C)c(OCCC[Si](C)(C)C)cc1C [compound 76] | 100% | 100% | 100%
CCN(C)C(=S)Nc1cc(C)c(OCCC[Si](C)(C)CC)cc1C [compound 77] | 100% | 100% | 100%
CCCN(C)C(=S)Nc1cc(C)c(OCCC[Si](C)(C)CC)cc1C [compound 78] | 0% | 98% | 100%
CCN(C)C(=S)Nc1cc(C)c(OCCC[Si](C)(CC)CC)cc1C [compound 79] | 0% | 99% | 100%
C=CCN(C)C(=S)Nc1cc(Cl)c(OCCC[Si](C)(C)C)c(Cl)c1Cl [compound 83] | 0% | 9% | 0%
CCN(C)C(=S)Nc1cc(Cl)c(OCCC[Si](C)(C)CC)cc1C [compound 84] | 100% | 100% | 100%
C=CCN(C)C(=S)Nc1cc(Cl)c(OCCC[Si](C)(C)C)cc1C [compound 85] | 100% | 99% | 100%
C=CCN(C)C(=S)Nc1cc(C)c(OCCC[Si](C)(C)C)cc1C [compound 86] | 100% | 99% | 100%
CCCCN(C)C(=S)Nc1cc(C(C)C)c(OCCC[Si](C)(C)C)cc1C [compound 91] | 0% | 26% | 0%
Cc1cc(OCCC[Si](C)(C)C)c(C(C)C)cc1NC(=S)N(C)C(C)C [compound 92] | 100% | 100% | 100%
